We go through 9 compounds from ChEMBL document CHEMBL4364250, “Improvement of Asparagine Ethylenediamines as Anti-malarial Plasmodium-Selective Proteasome Inhibitors” (J Med Chem, 2019).

A short description of series [1]: (§1) Inhibition of Plasmodium falciparum 20S proteasome beta5 subunit using suc-LLVY-AMC as substrate in presence of beta2 inhibitor WLW-VS.
The target of series [2] is T1, Proteasome Macropain subunit MB1 (Homo sapiens, UniProt P28074).
T1 sequence (P28074 whole entry): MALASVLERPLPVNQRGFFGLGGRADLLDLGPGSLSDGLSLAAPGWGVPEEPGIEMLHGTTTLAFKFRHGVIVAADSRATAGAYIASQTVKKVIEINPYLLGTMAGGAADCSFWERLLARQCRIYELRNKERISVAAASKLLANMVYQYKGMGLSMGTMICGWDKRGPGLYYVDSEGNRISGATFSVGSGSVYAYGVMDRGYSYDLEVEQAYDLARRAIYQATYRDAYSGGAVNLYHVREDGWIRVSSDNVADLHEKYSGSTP
Description: Inhibition of human beta5 20S constitutive proteasome using suc-LLVY-AMC as substrate. The settings on record: for inhibition (INH): human.

Series [3] concerns the target T2, Proteasome subunit beta type-8 (Homo sapiens, UniProt P28062).
T2 sequence (P28062 whole entry): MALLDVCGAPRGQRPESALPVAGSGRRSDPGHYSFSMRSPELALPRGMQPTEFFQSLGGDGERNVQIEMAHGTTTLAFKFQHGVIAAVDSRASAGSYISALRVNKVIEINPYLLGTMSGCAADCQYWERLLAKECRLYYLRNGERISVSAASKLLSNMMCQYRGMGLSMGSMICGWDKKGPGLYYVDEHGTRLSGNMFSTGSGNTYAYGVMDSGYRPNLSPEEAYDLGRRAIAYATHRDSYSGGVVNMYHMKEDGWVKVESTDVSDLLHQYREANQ
Description: Inhibition of human beta5 20S immunoproteasome using Ac-ANW-AMC as substrate. The settings on record: for inhibition (INH): human.

For series [4], the system named is Plasmodium falciparum. Description: Antimalarial activity against erythrocytic stage of Plasmodium falciparum 3D7 measured after 72 hrs by SYBR green dye based fluorescence assay. In kind it is functional, organism-based. To be noted: 3D7, 72 h.
Series [5] has as its system beta5 subunit of human 20S constitutive proteasome. Description: Selectivity ratio of IC50 for human beta5 20S constitutive proteasome to IC50 for Plasmodium falciparum 20S proteasome beta5 subunit. In kind it is toxicity. The settings on record: read-out: Ratio IC50.
In series [6] the test system is beta5 subunit of human 20S immunoproteasome. Description: Selectivity ratio of IC50 for human beta5 20S immunoproteasome to IC50 for Plasmodium falciparum 20S proteasome beta5 subunit. To be noted: read-out: Ratio IC50. In kind it is toxicity.
For the next series, the system named is HepG2. Description: Cytotoxicity against human HepG2 cells. In kind it is cell-based.
The subject of the next series is Karpas-1106P. Description: Cytotoxicity against human KARPAS1106P cells. In kind it is cell-based.
A short description of series [7]: Clearance in human liver microsomes. In kind it is ADME, Microsome. The settings on record: read-out: CLH. For orientation: Liver microsomes are vesicles of endoplasmic reticulum, rich in cytochrome P450 enzymes.
Series [8] in a line: Clearance in rat liver microsomes. In kind it is ADME, Microsome. To be noted: read-out: CLH.
A short description of series [9]: Clearance in mouse liver microsomes. To be noted: read-out: CLH. In kind it is ADME, Microsome.
Series [10] concerns Plasmodium falciparum. Nature of the series: Antimalarial activity against erythrocytic stage of Plasmodium falciparum Dd2 measured after 72 hrs in presence of 20S beta2 inhibitor WLW-VS by SYBR green dye based fluorescence assay. In kind it is functional, organism-based.
Series [11] deals with Plasmodium falciparum. Nature of the series: Antimalarial activity against erythrocytic stage of Plasmodium falciparum Dd2 measured after 72 hrs by SYBR green dye based fluorescence assay. In kind it is functional, organism-based. The settings on record: Dd2, 72 h.
For series [12], the system named is Plasmodium falciparum. Description: Antimalarial activity against erythrocytic stage of Plasmodium falciparum Dd2 harboring 20S beta2 proteasome A117D mutant measured after 72 hrs by SYBR green dye based fluorescence assay. In kind it is functional, organism-based. The settings on record: Dd2, 72 h.
The subject of series [13] is Plasmodium falciparum. Description: Antimalarial activity against erythrocytic stage of Plasmodium falciparum Dd2 harboring 20S beta5 proteasome A49S mutant measured after 72 hrs by SYBR green dye based fluorescence assay. In kind it is functional, organism-based. The settings on record: Dd2, 72 h.
Series [14] relates to Plasmodium falciparum. Description: Resistance index, ratio of EC50 for erythrocytic stage of Plasmodium falciparum Dd2 harboring 20S beta5 proteasome A49S mutant to EC50 erythrocytic stage of Plasmodium falciparum Dd2. In kind it is functional.
The nature of series [15]: Permeability of the compound at pH 7.4 by PAMPA. In kind it is ADME. The settings on record: read-out: permeability.
Series [16] relates to Plasmodium falciparum. Nature of the series: Inhibition of MV151 binding to Plasmodium falciparum 20S proteasome beta5 subunit A49S mutant at 1.2 to 33.3 uM preincubated for 1 hr followed by MV151 addition and measured after 1 hr by fluorescence assay.
For series [17], the system named is Plasmodium falciparum. Description: Resistance index, ratio of EC50 for erythrocytic stage of Plasmodium falciparum Dd2 harboring 20S beta6 proteasome A117D mutant to EC50 erythrocytic stage of Plasmodium falciparum Dd2.
Series [18] has as its system Plasmodium falciparum. The description is as §1.
Series [19] deals with Plasmodium falciparum. Nature of the series: Inhibition of MV151 binding to Plasmodium falciparum 20S proteasome beta5 subunit preincubated for 1 hr followed by MV151 addition and measured after 1 hr by fluorescence assay.
In series [20] the test system is Plasmodium falciparum. Nature of the series: microbe, parasite or virus in culture. To be noted: 72 h.
Description: Antimalarial activity against Plasmodium falciparum clinical isolate measured after 72 hrs by SYBR green dye based fluorescence assay
Series [21] concerns Plasmodium falciparum. Description: Inhibition of MV151 binding to Plasmodium falciparum 20S proteasome beta2 subunit preincubated for 1 hr followed by MV151 addition and measured after 1 hr by fluorescence assay.
The subject of series [22] is Plasmodium falciparum. Description: Inhibition of MV151 binding to Plasmodium falciparum 20S proteasome beta1 subunit preincubated for 1 hr followed by MV151 addition and measured after 1 hr by fluorescence assay.

Structures are written as SMILES. The source made the active and inactive calls. The rule behind the calls is not given here. Bounds are passed on as bounds.

For `Cc1ccc(S(=O)(=O)N[C@@H](CC(=O)NC(C)(C)C)C(=O)NCCNC(=O)c2ccc(F)cc2)cc1`, the concentration for half-maximal inhibition (IC50) (usually the midpoint of a concentration-inhibition curve) in series [1] is 121 nM; in series [2] it was 6700 nM; in series [3] it was 179 nM. Moreover, the EC50 – broadly, the concentration needed to bring the measured effect to its halfway point – was 50.9 nM in the series with Plasmodium falciparum [4], over 11000 nM with HepG2 and over 11100 nM with Karpas-1106P. Moreover, the results for the selectivity ratio in [5] and in [6] were 55 and 1.5, respectively. Besides, the figures for the microsomal CLint in series [7], in series [8] and in series [9] were 149 µL/min/mg, 81 µL/min/mg and 49 µL/min/mg, respectively.

Consider `Cc1ccc(S(=O)(=O)N[C@@H](CC(=O)NC(C)(C)C)C(=O)NCCNC(=O)c2ccccc2)cc1`, for which the half-inhibitory concentration (IC50) in [1] was 20.8 nM; in series [2] it was 1410 nM; in series [3], 100 nM. Moreover, the EC50 with Plasmodium falciparum [4] is 8.4 nM; with HepG2, over 11000 nM; with Karpas-1106P, over 11100 nM; with Plasmodium falciparum [11], 7.7 nM; in the series with Plasmodium falciparum [12] it was 111 nM; with Plasmodium falciparum [13], 135 nM. Besides, the selectivity ratio amounted to 68 in series [5] and 4.8 in [6]. In addition, the result in the series on Plasmodium falciparum [10] was Active. Besides, the “Ratio EC50” value was 17 with Plasmodium falciparum [14] and 14 in the series with Plasmodium falciparum [17]. Also, the Papp in series [15] worked out at 13.7 ×10⁻⁶ cm/s. In addition, the microsomal CLint in series [7] was 122 µL/min/mg; in series [8], 66 µL/min/mg; in series [9] it was 64 µL/min/mg. Also, the inhibition entry in the series with Plasmodium falciparum [16] is “Active”.

For the compound `C#Cc1cccc(C(=O)NCCNC(=O)[C@H](CC(=O)NC(C)(C)C)NS(=O)(=O)c2ccc(C)cc2)c1`, the IC50 was 4.7 nM in series [1], 430 nM in [2] and 112 nM in series [3]. The inhibition entry in the series with Plasmodium falciparum [18] and in the series with Plasmodium falciparum [19] was “Dose-dependent effect” throughout. For the same compound, the “inhibition (INH)” value in series [2] and in series [3] was “Dose-dependent effect” in each case. The EC50 with Plasmodium falciparum [4] was 3.1 nM; with HepG2, over 11000 nM; with Karpas-1106P it was over 11100 nM; in the series on Plasmodium falciparum [11], 3.3 nM; in the series with Plasmodium falciparum [12] it was 61.9 nM; with Plasmodium falciparum [13], 502 nM. This compound had an EC50 in the series on Plasmodium falciparum [20] of 7.1 nM. For the same compound, the results for the selectivity ratio in series [5] and in series [6] were 91 and 24, respectively. Besides, the “Ratio EC50” value with Plasmodium falciparum [14] turned out to be 152; with Plasmodium falciparum [17] it was 19. For the same compound, the Papp in series [15] came out at 20.3 ×10⁻⁶ cm/s. Besides, the figures for the microsomal CLint in series [7], in [8] and in [9] were 61 µL/min/mg, 61 µL/min/mg and 97 µL/min/mg, respectively.

For the compound `CC(C)C[C@@H](/C=C/S(C)(=O)=O)NC(=O)[C@H](CC(C)C)NC(=O)[C@H](Cc1c[nH]c2ccccc12)NC(=O)CN1CCOCC1`, the values for the EC50 with Plasmodium falciparum [11], in the series on Plasmodium falciparum [12] and in the series on Plasmodium falciparum [13] were 91.6 nM, 7.3 nM and 26 nM, respectively. Also, the “Ratio EC50” value was 0.28 in the series with Plasmodium falciparum [14] and 0.08 in the series with Plasmodium falciparum [17].

As to `COc1cccc(C(=O)NCCNC(=O)[C@H](CC(=O)NC(C)(C)C)NS(=O)(=O)c2ccc(C)cc2)c1`, the 50% inhibitory concentration (IC50) was 8.9 nM in series [1], 506 nM in series [2] and 38 nM in [3]. Besides, the EC50 with Plasmodium falciparum [4] was 2.3 nM; in the series with HepG2, over 11000 nM; in the series with Karpas-1106P, over 11100 nM; with Plasmodium falciparum [11] it was 2.5 nM; with Plasmodium falciparum [12] it was 63.4 nM; with Plasmodium falciparum [13] it was 252 nM. Besides, the selectivity ratio in series [5] turned out to be 57; in series [6], 4.3. Also, the entries for the “Ratio EC50” value in the series on Plasmodium falciparum [14] and in the series with Plasmodium falciparum [17] were 101 and 25, respectively. Moreover, the Papp in series [15] amounted to 15.9 ×10⁻⁶ cm/s. Moreover, the values for the microsomal CLint in [7], in series [8] and in [9] were 202 µL/min/mg, 115 µL/min/mg and 142 µL/min/mg, respectively.

Regarding `Cc1ccc(S(=O)(=O)N[C@@H](CC(=O)NC(C)(C)C)C(=O)NCCNC(=O)c2cc(C)ccc2F)cc1`, the IC50 in [1] came to 20.7 nM; in series [2] it was 12000 nM; in series [3] it was 384 nM. Further, the inhibition result in the series with Plasmodium falciparum [18] is “Dose-dependent effect”. In addition, the “inhibition (INH)” value in [2] and in [3] was “Dose-dependent effect” throughout. For the same compound, the results for the 50% effective concentration (EC50) in the series on Plasmodium falciparum [4], in the series with HepG2 and with Karpas-1106P were 13.9 nM, over 11000 nM and over 11100 nM, respectively. Further, the selectivity ratio turned out to be 581 in [5] and 19 in series [6].

For the compound `Cc1cc(C(=O)N[C@@H](CC(=O)NC(C)(C)C)C(=O)NCCNC(=O)c2cccc(-n3cccn3)c2)no1`, the EC50 in the series with Plasmodium falciparum [11] is 27.6 nM; in the series with Plasmodium falciparum [12], 279 nM; in the series with Plasmodium falciparum [13] it was over 2770 nM. For the same compound, the “Ratio EC50” value in the series on Plasmodium falciparum [14] is over 100; with Plasmodium falciparum [17], 10.

On to `Cc1ccc(S(=O)(=O)N[C@@H](CC(=O)NC(C)(C)C)C(=O)NCCNC(=O)c2ccccc2F)cc1`, for which the figures for the IC50 in series [1], in series [2] and in series [3] were 32 nM, 1140 nM and 169 nM, respectively. The EC50 with Plasmodium falciparum [4] is 7.5 nM; with HepG2, over 11000 nM; in the series on Karpas-1106P, over 11100 nM. The selectivity ratio in series [5] amounted to 36; in series [6], 5.3. Also, the inhibition result in the series on Plasmodium falciparum [21] and with Plasmodium falciparum [22] was “inactive” throughout. The Papp in series [15] was 10.5 ×10⁻⁶ cm/s. The microsomal CLint in series [7] turned out to be 141 µL/min/mg; in series [8], 124 µL/min/mg; in series [9], 141 µL/min/mg.

Regarding `Cc1ccc(S(=O)(=O)N[C@@H](CC(=O)NC(C)(C)C)C(=O)NCCNC(=O)c2cc(-c3ccccc3F)ccc2F)cc1`, the IC50 worked out at 110 nM in series [2] and 4 nM in series [3]. It took 1.6 nM to reach a half-maximal effect with Plasmodium falciparum [4] (EC50). Besides, the inhibition entry in the series with Plasmodium falciparum [21] and in the series with Plasmodium falciparum [22] was “inactive” throughout.
